Assay results as given in patent publication US20040076663A1, “Complexed-acidic-phospholipid-collagen composites for bone induction” (priority 2002, published 2004).

System: human osteoblast-like cells, MG-63
Test: Cell binding to complexed acidic phospholipid collagen composite (cell adherence and proliferation)
Type: cell-based
Conditions: MG-63 cell cultures; composite sterilized under UV light
Source text: Before usage, the prepared composite was sterilized under UV light.

## fibronectin
  cell adherence and proliferation: some cells remain in clumps and there appeared to be fewer cells that adhered compared to those exposed to either of the composite formulations
